Patent EP0310585B1, “Octapeptide inhibitors of myristoylating enzymes” (WASHINGTON UNIVERSITY, priority 1987, dated 1989)
Where no end group is shown, it is not given here.

Tests used:
[1] = molecular target: T1, N-myristoylglycylpeptide synthetase (Saccharomyces cerevisiae, UniProt P14743); assay: Assay for N-myristoylglycylpeptide synthetase activity, crude yeast membrane fractions (Table I); format: biochemical; conditions: Test 3: + 1 mM peptide, 18 µM peptide substrate GlyAsnAlaAlaAlaAlaArgArg, control 26.7
T1 construct: A protease-deficient strain of Saccharomyces cerevisiae, JR153 [Hemmings et al., Proc. Natl. Acad. Sci. USA 78, 435-439 (1981)], was used as a source of N-myristoylglycylpeptide synthetase; endogenous in cells; host or cells: S. cerevisiae strain JR153, crude membrane pellet of cell lysate
T1 sequence (P14743 1-455): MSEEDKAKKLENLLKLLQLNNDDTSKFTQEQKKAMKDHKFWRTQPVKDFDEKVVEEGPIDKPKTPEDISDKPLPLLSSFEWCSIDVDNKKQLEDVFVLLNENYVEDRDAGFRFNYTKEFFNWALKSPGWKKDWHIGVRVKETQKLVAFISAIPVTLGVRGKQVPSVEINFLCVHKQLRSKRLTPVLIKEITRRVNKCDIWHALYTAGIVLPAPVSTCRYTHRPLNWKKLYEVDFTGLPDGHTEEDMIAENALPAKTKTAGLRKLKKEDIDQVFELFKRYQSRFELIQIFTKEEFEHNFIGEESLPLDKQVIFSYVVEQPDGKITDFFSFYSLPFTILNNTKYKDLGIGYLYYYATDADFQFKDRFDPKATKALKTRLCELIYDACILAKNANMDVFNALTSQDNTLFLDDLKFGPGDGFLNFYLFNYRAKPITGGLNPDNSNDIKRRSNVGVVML
Experimental: Preparation of yeast extract for the assay of N-myristoylglycylpeptide synthetase activity. Yeast cultures were grown as described above to O.D. 660 nm of 1 to 3. Cells from 40 ml of culture were collected by centrifugation at 4°C at 7600 x g for 10 minutes. The supernatant was decanted, the cell pellet was resuspended by pipetting into 1 ml of cold 10 mM Tris, pH 7.4, transferred to a 1.5 ml conical polypropylene centrifuge tube, and the cells were then repelleted at 4°C at 7600 x g for 10 minutes. […] Protein was determined by the method of Peterson, Anal. Biochem. 83, 346-356 (1977).
Assay for N-myristoylglycylpeptide synthetase activity. […] Typically, 40% to 50% of the [³H]fatty acid was converted to its CoA ester by this procedure as measured by determining the radioactivity remaining in the reaction after acidification with 6 N HCl to pH 2.0 and extraction 6 times with 5 volumes of heptane, a modification of the method of Hosaka et al., Meth. […] (Under these conditions, 95% of synthetic [³H]myristoylpeptide or [³H]palmitoylpeptide remined soluble when added to an assay mixture.) Fifty microliters of the supernatant were mixed with 75 µl methanol and 75 µl of HPLC buffer A, and analyzed by reverse phase HPLC on a 3.9 mm by 30 cm Waters µ-Bondapak C₁₈ column using the same HPLC buffers described above, starting at 35% acetonitrile and eluting with a 1% per minute acetonitrile gradient. […]

[2] = molecular target: T2, N-myristoylglycylpeptide synthetase (N-myristoyl transferase or NMT) (Saccharomyces cerevisiae, UniProt P14743); assay: Octapeptide substrate specificity / kinetic characterization with partially purified yeast myristoylating enzyme (Table II); format: biochemical
T2 construct: endogenous in cells; host or cells: S. cerevisiae strain JR153
T2 sequence (P14743 1-455): T1 sequence (P14743 1-455)
Experimental: The synthetic octapeptides I and II were initially used to identify a unique enzymatic activity which transfers myristic acid to the amino terminal glycine of this and other peptides. […] The enzyme activity was determined in an in vitro assay which measures the transfer of [³H]-myristic acid to the acceptor peptide, […]. The transfer reaction is dependent on adenosine triphosphate (ATP) and coenzyme A (CoA). The enzymatic product was then identified by high performance liquid chromatography (HPLC) by co-elution with a chemically synthesized myristoyl peptide standard. […] Both contained M-myristoyl glycine.
Assay for N-myristoylglycylpeptide synthetase activity. [³H]Fatty acyl CoA was synthesized enzymatically and added to the incubation as follows. […] Typically, 40% to 50% of the [³H]fatty acid was converted to its CoA ester by this procedure as measured by determining the radioactivity remaining in the reaction after acidification with 6 N HCl to pH 2.0 and extraction 6 times with 5 volumes of heptane, a modification of the method of Hosaka et al., Meth. […] One minute fractions were collected and the radioactivity in each fraction determined by liquid scintillation counting. […]

Substance	Rate of Myristoylpeptide Synthesis [1]	Ki [2]
GPRP	25.6 DPM x 10⁻³ /10 min	
GSSKSPKDPS [a decapeptide containing N-terminal glycine]	27.4 DPM x 10⁻³ /10 min	
GNAAKARR-NH2 [Gly-Asn-Ala-Ala-Lys-Ala-Arg-Arg]		50 µM
GNANSARR-NH2 [Gly-Asn-Ala-Asn-Ser-Ala-Arg-Arg]		0.3 µM
